What follows are compounds tested against T1, Dipeptidyl peptidase 1 (Homo sapiens, UniProt P53634) (assay: Inhibition of recombinant human DPPI using H-Gly-Arg-AFC as substrate preincubated for 30 mins followed by substrate addition measured after 60 mins by fluorescence plate reader analysis).
T1 sequence (P53634 25-134 limits assumed): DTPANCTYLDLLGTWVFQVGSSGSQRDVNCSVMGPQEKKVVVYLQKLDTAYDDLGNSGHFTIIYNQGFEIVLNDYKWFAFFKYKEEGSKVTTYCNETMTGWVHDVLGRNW
T1 sequence (P53634 231-394 limits assumed): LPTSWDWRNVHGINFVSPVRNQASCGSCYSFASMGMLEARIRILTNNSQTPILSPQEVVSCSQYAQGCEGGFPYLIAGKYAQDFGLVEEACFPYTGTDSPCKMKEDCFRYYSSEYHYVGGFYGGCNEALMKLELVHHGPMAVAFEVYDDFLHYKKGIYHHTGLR
T1 sequence (P53634 395-463 limits assumed): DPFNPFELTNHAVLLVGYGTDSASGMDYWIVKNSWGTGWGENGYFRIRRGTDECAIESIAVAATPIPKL

Row | IC50 | Compound
1 | 0.398 nM | CS[C@@H]1CN[C@H](C(=O)N[C@H](C#N)Cc2ccc(-c3ccc(C#N)cc3)cc2)C1
2 | 6.31 nM | N#Cc1ccc(-c2ccc(C[C@@H](C#N)NC(=O)[C@@H]3C[C@H](O)CN3)cc2)cc1
3 | 1.58 nM | N#Cc1ccc(-c2ccc(C[C@@H](C#N)NC(=O)[C@@H]3C[C@H](F)CN3)cc2)cc1

The next lines start with the compound.

Row | Compound | IC50
4 | N#Cc1ccc(-c2ccc(C[C@@H](C#N)NC(=O)[C@@H]3C[C@@H](F)CN3)cc2)cc1 | 631 nM
5 | N#Cc1ccc(-c2ccc(C[C@@H](C#N)NC(=O)[C@@H]3CCCN3)cc2)cc1 | 50.1 nM
6 | N#Cc1ccc(-c2ccc(C[C@@H](C#N)NC(=O)[C@@H]3CC(F)(F)CN3)cc2)cc1 | 79.4 nM

What follows are compounds tested against T1, Dipeptidyl peptidase 1 (assay: Inhibition of recombinant human DPPI using H-Gly-Arg-AMC as substrate preincubated for 30 mins followed by substrate addition measured after 60 mins by fluorescence plate reader analysis).

Row | IC50 | Compound
7 | 158 nM | N#C[C@H](Cc1ccc(-c2ccccc2)cc1)NC(=O)[C@@H]1C[C@@H](O)CN1
8 | 50.1 nM | N#Cc1ccc(-c2ccc(C[C@@H](C#N)NC(=O)[C@@H]3C[C@@H](O)CN3)cc2)cc1
